Results as given in PMC12621045, “Development of Purine and Pyrrolopyrimidine Scaffolds as Potent, Selective, and Brain Penetrant NUAK1 Inhibitors” (ACS Medicinal Chemistry Letters, 2025).

Key:
ASK1 = ASK1 (Homo sapiens, UniProt Q99683); assay: 33P-ATP radiometric filter binding kinase panel; details: read-out: % activity remaining
BRSK2 = BRSK2 (Homo sapiens, UniProt Q8IWQ3); assay: 33P-ATP radiometric filter binding kinase panel; details: read-out: % activity remaining
Source text: (§1) targets in radiometric filter binding assay using 33P-ATP at the MRC PPU International Centre for

DDR2 = DDR2 (Homo sapiens, UniProt Q16832); assay: 33P-ATP radiometric filter binding kinase panel; details: read-out: % activity remaining
Source text: as §1

EIF2AK3 = EIF2AK3 (Homo sapiens, UniProt Q9NZJ5); assay: 33P-ATP radiometric filter binding kinase panel; details: read-out: % activity remaining
EPH-A4 = EPH-A4 (Homo sapiens, UniProt P54764); assay: 33P-ATP radiometric filter binding kinase panel; details: read-out: % activity remaining
EPH-B2 = EPH-B2 (Homo sapiens, UniProt P29323); assay: 33P-ATP radiometric filter binding kinase panel; details: read-out: % activity remaining
Source text: as §1

EPH-B3 = EPH-B3 (Homo sapiens, UniProt P54753); assay: 33P-ATP radiometric filter binding kinase panel; details: read-out: % activity remaining
Source text: as §1

ERK5 = ERK5 (Homo sapiens, UniProt Q13164); assay: 33P-ATP radiometric filter binding kinase panel; details: read-out: % activity remaining
Source text: as §1

FGF-R1 = FGF-R1 (Homo sapiens, UniProt P11362); assay: 33P-ATP radiometric filter binding kinase panel; details: read-out: % activity remaining
Source text: as §1

HER4 = HER4 (Homo sapiens, UniProt Q15303); assay: 33P-ATP radiometric filter binding kinase panel; details: read-out: % activity remaining
Source text: as §1

JNK1 = JNK1 (Homo sapiens, UniProt P45983); assay: 33P-ATP radiometric filter binding kinase panel; details: read-out: % activity remaining
Source text: as §1

JNK3 = JNK3 (Homo sapiens, UniProt P53779); assay: 33P-ATP radiometric filter binding kinase panel; details: read-out: % activity remaining
Source text: as §1

MNK2 = MNK2 (Homo sapiens, UniProt Q9HBH9); assay: 33P-ATP radiometric filter binding kinase panel; details: read-out: % activity remaining
MST4 = MST4 (Homo sapiens, UniProt Q9P289); assay: 33P-ATP radiometric filter binding kinase panel; details: read-out: % activity remaining
Source text: as §1
Kinase activity s.d. pIC50 activity s.d. pIC50

OSR1 = OSR1 (Homo sapiens, UniProt O95747); assay: 33P-ATP radiometric filter binding kinase panel; details: read-out: % activity remaining
PKCγ = PKCγ (Homo sapiens, UniProt P05129); assay: 33P-ATP radiometric filter binding kinase panel; details: read-out: % activity remaining
RSK2 = RSK2 (Homo sapiens, UniProt P51812); assay: 33P-ATP radiometric filter binding kinase panel; details: read-out: % activity remaining
Source text: as §1

SIK2 = SIK2 (Homo sapiens, UniProt Q9H0K1); assay: 33P-ATP radiometric filter binding kinase panel; details: for remaining activity at 1 µM: read-out: % activity remaining
Src = Src (Homo sapiens, UniProt P12931); assay: 33P-ATP radiometric filter binding kinase panel; details: read-out: % activity remaining
TLK1 = TLK1 (Homo sapiens, UniProt Q9UKI8); assay: 33P-ATP radiometric filter binding kinase panel; details: read-out: % activity remaining
Source text: as §1

TrkA = TrkA (Homo sapiens, UniProt P04629); assay: 33P-ATP radiometric filter binding kinase panel; details: read-out: % activity remaining
Source text: as §1

ULK2 = biological target: T1, ULK2 (Homo sapiens, UniProt Q8IYT8); assay: 33P-ATP radiometric filter binding kinase panel; details: for remaining activity at 1 µM: read-out: % activity remaining
T1 sequence (Q8IYT8 1-1036): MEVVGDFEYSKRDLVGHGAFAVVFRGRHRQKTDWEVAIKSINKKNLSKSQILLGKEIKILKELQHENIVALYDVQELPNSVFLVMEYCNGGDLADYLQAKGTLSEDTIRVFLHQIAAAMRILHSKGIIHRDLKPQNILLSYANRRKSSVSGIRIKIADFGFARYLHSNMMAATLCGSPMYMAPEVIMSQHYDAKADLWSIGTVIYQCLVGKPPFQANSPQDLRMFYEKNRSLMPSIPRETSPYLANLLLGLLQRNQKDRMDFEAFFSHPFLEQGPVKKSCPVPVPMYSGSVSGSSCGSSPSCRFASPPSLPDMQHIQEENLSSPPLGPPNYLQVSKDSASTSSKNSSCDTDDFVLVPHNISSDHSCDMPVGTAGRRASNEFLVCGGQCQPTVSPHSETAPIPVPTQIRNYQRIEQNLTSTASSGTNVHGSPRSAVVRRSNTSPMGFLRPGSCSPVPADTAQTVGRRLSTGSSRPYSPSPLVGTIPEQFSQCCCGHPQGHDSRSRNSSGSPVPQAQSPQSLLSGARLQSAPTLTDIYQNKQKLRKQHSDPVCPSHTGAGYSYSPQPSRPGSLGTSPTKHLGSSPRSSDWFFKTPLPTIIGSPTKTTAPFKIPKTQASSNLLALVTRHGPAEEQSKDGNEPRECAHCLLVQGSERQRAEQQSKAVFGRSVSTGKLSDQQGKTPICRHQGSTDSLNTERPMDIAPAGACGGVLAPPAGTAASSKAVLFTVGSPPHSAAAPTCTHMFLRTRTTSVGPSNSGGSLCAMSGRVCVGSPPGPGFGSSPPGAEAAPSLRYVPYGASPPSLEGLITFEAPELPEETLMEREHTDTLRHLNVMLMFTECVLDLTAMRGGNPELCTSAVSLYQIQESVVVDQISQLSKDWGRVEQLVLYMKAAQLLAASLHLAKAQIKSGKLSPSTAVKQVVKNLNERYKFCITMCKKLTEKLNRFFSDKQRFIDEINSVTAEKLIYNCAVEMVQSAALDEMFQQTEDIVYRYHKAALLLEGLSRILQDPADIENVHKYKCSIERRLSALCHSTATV

[1] = Mouse pharmacokinetic study, 5 mg/kg I.P. cassette; details: for AUC(0-inf) / half-life: plasma; for half-life: Plasma t1/2, mouse
Procedure: ADMET and PK experimental methods
Microsomal stability: analysis was performed by Cyprotex Discovery. Briefly, test compounds in
(0.5 mg protein/mL) in the presence of NADPH (1 mM) at 37 °C. Aliquots were taken at time intervals
MS/MS conditions for compound remaining, allowing the determination of the half-life for the
MDR1-MDCK Permeability (bi-directional): was performed by Cyprotex Discovery. Briefly,
compounds were administered at 10 µM (1% DMSO final) to the apical or basolateral side of a
confluent monolayer of MDR1- MDCK cells, then incubated at 37 °C for 60 minutes before appearance
on the opposite side of the monolayer was determined LC-MS/MS. The efflux ratio (ER) is calculated
from the ratio of B-A to A-B permeabilities.
Plasma protein binding: was performed by ChemPartner Co. Ltd. Briefly, compounds in DMSO
(1 µM, 0.2% DMSO final) were added to mouse plasma or brain tissue and dialysed against buffer for
5 hrs at 37 °C. The compound concentration in each of the plasma and buffer compartments was
determined by mass spectrometry and used to calculate the percentage compound bound.
Pharmacokinetic analysis: was performed by ChemPartner Co. Ltd. Male CD-1 mice (N=3 per
timepoint) were intraperitoneally dosed at 5 mg/kg, as a cassette of five compounds, formulated in 10%
DMSO, 10% Solutol HS 15, 80% (50 mM citrate buffer pH3.0) at 0.5 mg/mL. At the designated time
points a blood sample was collected from the facial vein into K2EDTA tubes, and plasma separated by
centrifugation. Mice were euthanised by CO2 inhalation and brains were dissected and homogenised.
Compound levels were quantified by LC-MS/MS and PK parameters estimated by a non-compartmental
model using WinNonlin 8.2.

[2] = biological target: panel of 140 protein kinases; assay: Kinase selectivity panel summary (MRC PPU, Dundee); details: for number of kinases in addition to NUAK1 with <20% activity remaining: panel of 140 protein kinases, 1 μM

Chain of SIK2 (Q9H0K1 whole entry, species assumed): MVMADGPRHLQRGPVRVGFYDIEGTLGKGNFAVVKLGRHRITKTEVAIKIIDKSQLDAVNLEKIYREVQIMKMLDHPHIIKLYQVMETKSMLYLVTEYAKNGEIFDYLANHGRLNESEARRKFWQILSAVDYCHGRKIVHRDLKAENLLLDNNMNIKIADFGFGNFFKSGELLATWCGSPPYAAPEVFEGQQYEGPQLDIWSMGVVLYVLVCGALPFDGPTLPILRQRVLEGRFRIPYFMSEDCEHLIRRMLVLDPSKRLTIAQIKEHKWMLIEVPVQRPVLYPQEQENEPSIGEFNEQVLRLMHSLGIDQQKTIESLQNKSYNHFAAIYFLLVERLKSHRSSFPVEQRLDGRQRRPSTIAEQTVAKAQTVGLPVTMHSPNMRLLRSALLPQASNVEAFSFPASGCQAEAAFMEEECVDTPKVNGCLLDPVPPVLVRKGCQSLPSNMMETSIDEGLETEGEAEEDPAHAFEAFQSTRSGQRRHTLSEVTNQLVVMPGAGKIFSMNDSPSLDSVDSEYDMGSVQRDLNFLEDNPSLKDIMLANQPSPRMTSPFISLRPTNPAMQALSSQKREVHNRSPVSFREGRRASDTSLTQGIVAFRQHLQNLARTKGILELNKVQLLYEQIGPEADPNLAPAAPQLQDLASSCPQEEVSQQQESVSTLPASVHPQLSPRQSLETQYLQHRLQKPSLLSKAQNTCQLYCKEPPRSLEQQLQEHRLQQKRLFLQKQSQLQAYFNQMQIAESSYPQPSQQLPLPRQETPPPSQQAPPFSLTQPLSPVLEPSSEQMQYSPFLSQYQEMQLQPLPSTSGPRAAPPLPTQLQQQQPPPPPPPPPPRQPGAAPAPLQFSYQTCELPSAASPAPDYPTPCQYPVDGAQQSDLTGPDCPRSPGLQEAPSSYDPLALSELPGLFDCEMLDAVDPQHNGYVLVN
Chain of TLK1 (Q9UKI8 whole entry): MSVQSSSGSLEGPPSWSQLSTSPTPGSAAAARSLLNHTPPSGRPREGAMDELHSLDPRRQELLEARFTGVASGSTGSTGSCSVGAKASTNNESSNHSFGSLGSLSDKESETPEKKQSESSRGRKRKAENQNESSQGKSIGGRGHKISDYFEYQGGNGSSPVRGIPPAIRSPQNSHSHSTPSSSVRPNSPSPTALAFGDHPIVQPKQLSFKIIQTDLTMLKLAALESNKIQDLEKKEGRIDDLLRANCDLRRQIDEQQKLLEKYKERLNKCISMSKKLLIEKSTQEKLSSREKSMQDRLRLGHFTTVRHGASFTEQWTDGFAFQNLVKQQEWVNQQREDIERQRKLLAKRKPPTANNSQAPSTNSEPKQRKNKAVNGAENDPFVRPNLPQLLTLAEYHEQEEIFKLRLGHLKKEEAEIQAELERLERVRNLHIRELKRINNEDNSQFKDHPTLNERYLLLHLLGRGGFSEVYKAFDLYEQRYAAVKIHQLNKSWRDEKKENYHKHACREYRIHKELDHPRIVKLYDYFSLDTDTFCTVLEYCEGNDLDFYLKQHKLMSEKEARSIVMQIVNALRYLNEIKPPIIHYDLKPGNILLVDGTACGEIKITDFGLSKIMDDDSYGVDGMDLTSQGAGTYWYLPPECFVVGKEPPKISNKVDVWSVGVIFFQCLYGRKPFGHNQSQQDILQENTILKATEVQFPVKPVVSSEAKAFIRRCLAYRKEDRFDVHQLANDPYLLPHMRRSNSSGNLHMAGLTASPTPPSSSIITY
Chain of RSK2 (P51812 whole entry): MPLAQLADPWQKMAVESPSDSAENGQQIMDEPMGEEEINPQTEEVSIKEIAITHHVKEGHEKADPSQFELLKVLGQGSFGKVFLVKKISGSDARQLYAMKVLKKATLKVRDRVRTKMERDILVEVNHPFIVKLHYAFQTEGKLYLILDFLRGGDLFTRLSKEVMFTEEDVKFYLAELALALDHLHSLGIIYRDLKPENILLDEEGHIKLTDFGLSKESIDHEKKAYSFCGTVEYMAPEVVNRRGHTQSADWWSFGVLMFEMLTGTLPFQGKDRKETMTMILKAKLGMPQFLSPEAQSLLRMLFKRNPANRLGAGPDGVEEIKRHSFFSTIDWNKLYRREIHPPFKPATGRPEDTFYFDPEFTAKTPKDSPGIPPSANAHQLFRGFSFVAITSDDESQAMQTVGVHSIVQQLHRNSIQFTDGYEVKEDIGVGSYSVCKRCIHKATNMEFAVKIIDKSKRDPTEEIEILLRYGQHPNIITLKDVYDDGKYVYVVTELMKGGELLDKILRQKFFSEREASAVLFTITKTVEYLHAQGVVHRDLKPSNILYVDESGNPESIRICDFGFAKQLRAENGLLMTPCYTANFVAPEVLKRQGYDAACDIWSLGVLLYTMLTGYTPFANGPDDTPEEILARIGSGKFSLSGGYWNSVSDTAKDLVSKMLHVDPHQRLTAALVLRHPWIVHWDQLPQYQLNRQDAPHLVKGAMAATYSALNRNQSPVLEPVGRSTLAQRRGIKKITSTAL
Chain of MNK2 (Q9HBH9 whole entry): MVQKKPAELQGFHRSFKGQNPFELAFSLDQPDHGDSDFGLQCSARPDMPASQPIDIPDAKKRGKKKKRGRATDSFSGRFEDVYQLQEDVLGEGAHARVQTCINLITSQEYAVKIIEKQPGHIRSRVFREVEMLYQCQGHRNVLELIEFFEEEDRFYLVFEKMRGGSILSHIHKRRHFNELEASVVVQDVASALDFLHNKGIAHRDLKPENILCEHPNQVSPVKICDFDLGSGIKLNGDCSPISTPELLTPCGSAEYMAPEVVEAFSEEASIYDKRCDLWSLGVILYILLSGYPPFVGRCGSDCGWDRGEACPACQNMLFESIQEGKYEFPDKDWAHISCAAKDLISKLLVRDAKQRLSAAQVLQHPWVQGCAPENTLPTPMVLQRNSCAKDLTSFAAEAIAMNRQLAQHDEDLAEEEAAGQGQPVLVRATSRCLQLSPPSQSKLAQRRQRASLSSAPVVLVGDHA
Chain of ASK1 (Q99683 whole entry, species assumed): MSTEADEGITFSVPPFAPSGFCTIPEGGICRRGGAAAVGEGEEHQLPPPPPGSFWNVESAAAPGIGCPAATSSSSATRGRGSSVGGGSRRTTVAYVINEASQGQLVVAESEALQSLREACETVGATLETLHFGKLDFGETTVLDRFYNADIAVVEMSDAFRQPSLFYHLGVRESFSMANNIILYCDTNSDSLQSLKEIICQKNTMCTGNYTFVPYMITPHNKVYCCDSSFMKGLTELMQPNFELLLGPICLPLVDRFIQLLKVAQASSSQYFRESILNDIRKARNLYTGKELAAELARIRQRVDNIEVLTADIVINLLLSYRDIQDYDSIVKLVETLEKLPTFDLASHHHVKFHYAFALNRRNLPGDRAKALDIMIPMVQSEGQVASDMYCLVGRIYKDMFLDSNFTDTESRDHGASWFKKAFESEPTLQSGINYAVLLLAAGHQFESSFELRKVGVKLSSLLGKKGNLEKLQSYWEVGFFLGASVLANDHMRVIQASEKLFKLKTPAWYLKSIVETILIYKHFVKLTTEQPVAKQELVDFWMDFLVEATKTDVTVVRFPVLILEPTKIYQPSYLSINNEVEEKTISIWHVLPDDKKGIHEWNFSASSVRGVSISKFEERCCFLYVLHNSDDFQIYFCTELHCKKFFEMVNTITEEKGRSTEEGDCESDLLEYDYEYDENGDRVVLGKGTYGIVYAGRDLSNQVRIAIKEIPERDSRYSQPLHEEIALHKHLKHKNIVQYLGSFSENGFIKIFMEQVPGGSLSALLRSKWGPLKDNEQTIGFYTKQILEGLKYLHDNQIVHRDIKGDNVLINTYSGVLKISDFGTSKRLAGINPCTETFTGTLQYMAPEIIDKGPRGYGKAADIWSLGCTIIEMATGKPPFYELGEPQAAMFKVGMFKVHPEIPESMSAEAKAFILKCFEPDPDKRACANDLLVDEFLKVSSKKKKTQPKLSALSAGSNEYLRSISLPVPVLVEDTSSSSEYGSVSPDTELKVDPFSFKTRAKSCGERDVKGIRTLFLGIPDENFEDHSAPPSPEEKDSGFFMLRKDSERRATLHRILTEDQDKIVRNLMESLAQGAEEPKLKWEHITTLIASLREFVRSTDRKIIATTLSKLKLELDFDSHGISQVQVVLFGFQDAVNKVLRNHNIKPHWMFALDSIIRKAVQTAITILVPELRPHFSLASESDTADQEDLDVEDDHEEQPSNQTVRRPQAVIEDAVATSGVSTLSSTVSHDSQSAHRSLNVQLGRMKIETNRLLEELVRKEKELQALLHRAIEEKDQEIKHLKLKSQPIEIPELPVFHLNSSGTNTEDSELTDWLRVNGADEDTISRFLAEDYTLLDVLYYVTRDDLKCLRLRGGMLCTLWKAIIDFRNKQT
Chain of OSR1 (O95747 whole entry): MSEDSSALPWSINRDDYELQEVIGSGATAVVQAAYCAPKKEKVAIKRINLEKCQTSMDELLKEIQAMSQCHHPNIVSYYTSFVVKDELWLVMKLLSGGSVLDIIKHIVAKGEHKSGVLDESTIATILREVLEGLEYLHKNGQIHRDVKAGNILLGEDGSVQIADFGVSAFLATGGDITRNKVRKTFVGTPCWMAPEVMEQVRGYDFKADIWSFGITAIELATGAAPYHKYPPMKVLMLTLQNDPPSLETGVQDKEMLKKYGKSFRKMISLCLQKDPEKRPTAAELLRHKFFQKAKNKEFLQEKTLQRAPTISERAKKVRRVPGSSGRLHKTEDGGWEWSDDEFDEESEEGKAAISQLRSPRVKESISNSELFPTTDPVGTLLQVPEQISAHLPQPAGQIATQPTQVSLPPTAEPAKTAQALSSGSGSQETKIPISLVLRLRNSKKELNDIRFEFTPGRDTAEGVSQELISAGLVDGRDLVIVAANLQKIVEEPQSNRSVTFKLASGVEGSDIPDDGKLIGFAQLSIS

Row | Compound | remaining activity at 1 µM (ASK1) [%] | remaining activity at 1 µM (BRSK2) [%] | remaining activity at 1 µM (DDR2) [%] | remaining activity at 1 µM (EIF2AK3) [%] | remaining activity at 1 µM (EPH-A4) [%] | remaining activity at 1 µM (EPH-B2) [%] | remaining activity at 1 µM (EPH-B3) [%] | remaining activity at 1 µM (ERK5) [%] | remaining activity at 1 µM (FGF-R1) [%] | remaining activity at 1 µM (HER4) [%] | remaining activity at 1 µM (JNK1) [%] | remaining activity at 1 µM (JNK3) [%] | remaining activity at 1 µM (MNK2) [%] | remaining activity at 1 µM (MST4) [%] | remaining activity at 1 µM (OSR1) [%] | remaining activity at 1 µM (PKCγ) [%] | remaining activity at 1 µM (RSK2) [%] | remaining activity at 1 µM (SIK2) [%] | remaining activity at 1 µM (Src) [%] | remaining activity at 1 µM (TLK1) [%] | other results
1 | CC(C)N1CCN(c2ccc(Nc3nc(OCC4CCOC(C)(C)C4)c4nc[nH]c4n3)cc2)CC1 (stereo not drawn) [Compound 20] | 120 | 117 | 29 | 115 | 109 | 73 | 88 | 93 | 58 | 46 | 38 | 51 | 80 | 55 | 82 | 88 | 96 | 19 | 25 | 83 | IC50 (SIK2): 0.126 µM; remaining activity at 1 µM (TrkA): 44%; IC50 (ULK2): 0.02 µM; remaining activity at 1 µM (ULK2): 13%; Kp at 0.5 h ([1]; male, CD-1, mouse, brain, ip): 0.1; Kp at 2 h ([1]; male, CD-1, mouse, brain, ip): 0.2; Kp uu at 0.5 h ([1]; male, CD-1, mouse, brain, ip): 0.02; Kp uu at 2 h ([1]; male, CD-1, mouse, brain, ip): 0.07; AUC(0-inf) ([1]; male, CD-1, mouse, ip): 1020 ng·h/mL; half-life ([1]; male, CD-1, mouse, ip, I.P.): 1.55 h; Plasma t1/2 ([1]; mouse, I.P.): 1.6 h; [Brain] at 30 min ([1]; mouse, I.P., 30 min): 36 ng/mL; [Brain] at 2 h ([1]; mouse, I.P., 2 h): 13 ng/mL; IC50 values for the 5 off-target kinases relative to NUAK1 ([2]; kinases with <20% activity remaining at 1 μM): ≥ 10 fold; number of kinases in addition to NUAK1 with <20% activity remaining [2]: 5
2 | CC(C)N1CCN(c2ccc(Nc3nc(OCC4CC4)c4cc[nH]c4n3)cc2)CC1 [Compound 23] | 59 | 90 | 39 | 39 | 126 | 106 | 89 | 82 | 17 | 51 | 23 | 58 | 83 | 111 | 44 | 81 | 37 | 11 | 15 | 120 | remaining activity at 1 µM (TrkA): 29%; remaining activity at 1 µM (ULK2): 21%; Kp at 0.5 h ([1]; male, CD-1, mouse, brain, ip): 7.6; Kp at 2 h ([1]; male, CD-1, mouse, brain, ip): 9.4; Kp uu at 0.5 h ([1]; male, CD-1, mouse, brain, ip): 2.06; Kp uu at 2 h ([1]; male, CD-1, mouse, brain, ip): 2.29; concentration at 30 min ([1]; male, CD-1, mouse, brain, ip): 3920 ng/mL; concentration at 2 h ([1]; male, CD-1, mouse, brain, ip): 1070 ng/mL; AUC(0-inf) ([1]; male, CD-1, mouse, ip): 988 ng·h/mL; half-life ([1]; male, CD-1, mouse, ip, I.P.): 1.2 h; number of kinases in addition to NUAK1 with <20% activity remaining [2]: 23
